The data set is described as follows: physchem. The data set is classed as physicochemical. Conditions: for solubility: water. Here is the method:
Four different active agents with different solubilities were selected for the preparation of multi-layer tablets, as follows:
9410 (Prednisone)—solubility of 0.1 mg/ml in water.

Structures are written as SMILES. Values after ≈ are worked out from the molar mass of the structure shown. Counter-ions that a name gives are not always drawn.

With `C[C@]12C=CC(=O)C=C1CC[C@@H]1[C@@H]2C(=O)C[C@@]2(C)[C@H]1CC[C@]2(O)C(=O)CO` [compound 9410, Prednisone], the “solubility described in words” value is recorded as “soluble” and the concentration in solution (solubility) came to 0.1 mg/mL (≈ 0.279 mM).

For the molecule `COc1ccc([C@@H]2Sc3ccccc3N(CCN(C)C)C(=O)[C@@H]2OC(C)=O)cc1` [compound 8403, Diltiazem HCl], the “solubility described in words” value is “Very soluble” and the solubility was found to be 1200 mg/mL.

Regarding `CC(C)(Cc1c[nH]c2ccccc12)NCC(O)COc1ccccc1C#N` (stereo not drawn) [compound 8110, Bucindolol], the “solubility described in words” value was “freely soluble” and the solubility was determined as 257 mg/mL (≈ 707 mM).
